{"source": "paper PMC10349806", "about": "(Nature Communications, 2023)", "key": {"PfCRT variant Y177A": {"test_system": "PfCRT variant Y177A", "experiment": "CQ uptake assay, oocytes expressing Y177A", "format": "cell-based, Plasmodium falciparum", "protocol": "(§1) Site-directed mutagenesis of PfCRT^Dd2 was performed as described using the megaprimer method with overlap extension[21],[54]. The primer pairs used are listed in Supplementary Table 6. Please note that a codon-optimized and oocyte-adapted version of PfCRT^Dd2 was used[22] (Supplementary Fig. 16). The resulting DNA fragment was cloned into the SP64T expression vector and verified by sequencing.\n(§2) Oocytes were obtained as described previously. Briefly, adult (>2 years old) female X. laevis frogs (NASCO) were anesthetized in a cooled solution of ethyl 3-amino benzoate methanesulfonate (0.1%, w/v), followed by a surgical removal of parts of the ovary. The ovary lobes were carefully dissected and small pieces of oocytes were incubated in Ca^2+-free ND96 buffer (96 mM NaCl, 2 mM KCl, 1 mM MgCl2 buffered with 5 mM HEPES/NaOH, pH 7.5) supplemented with collagenase D (0.1%, w/v; Roche), BSA (0.5%, w/v), and 9 mm Na2HPO4 at 18 °C for 14-16 h while gentle shaking. After incubation, the oocytes were carefully washed several times with ND96 buffer (96 mM NaCl, 2 mM KCl, 1.8 mM CaCl2, 1 mM MgCl2 buffered with 5 mM HEPES/NaOH, pH 7.5) supplemented with 100 mg l^−1 gentamycin). Defolliculated and healthy-looking stage V-VI oocytes were manually selected for RNA microinjection. The RNA was generated as following: The codon-optimized sequences of PfCRT variants were cloned into the pSP64T expression vector. After vector linearization using the restriction endonucleases BamHI or SalI (New England Biolabs), transcription was performed using the in vitro SP6 mMessage mMachine Kit (Ambion)[34]. The obtained RNA was kept at −80 °C and diluted with nuclease-free water to a concentration of 0.6 μg μl^−1. Precision-bore glass capillary tubes (3.5-inch glass capillaries; Drummond Scientific Co.) were pulled on a vertical puller (P-87 Flaming/Brown micropipette puller, Sutter Instrument Co.), graduated, and placed on a microinjector (Nanoject II Auto-Nanoliter Injector, Drummond Scientific Co.). 50 nl of nuclease-free water alone (control oocytes) or 50 nl of 0.6 μg μl^−1 RNA were injected under stereomicroscopic control. Injected oocytes were incubated for 46–72 h at 18 °C with twice-daily buffer changes before usage in experiments.\nDrug uptake assays were performed as described previously[21],[22],[24],[34]. […] The direction of radio-labeled drug transport is here from the mostly acidic extracellular solution (pH 4.5 or 6.0, as indicated) into the oocyte cytosol (pH ∼ 7.2), which corresponds to the efflux of drug from the acidic digestive vacuole (pH 5.2) into the parasite cytoplasm (pH 7.2). The topology of PfCRT in the oolemma is such that both the N- and C-terminus face the extracellular milieu[3],[22]. In the parasite, the N- and C-terminus face the lumen of the digestive vacuole. CQ uptake kinetics were performed by incubating oocytes in ND96 buffer adjusted to a pH of 4.5, 5.0, 5.5, or 6.0 and supplemented with 50 nM [^3H]CQ and one of 7 different CQ concentrations (10 µM, 50 µM, 100 µM, 200 µM, 300 µM, 400 µM, 500 µM CQ). The reaction was stopped at the 60 min time point, which is in the linear uptake range[22],[34] (Supplementary Fig. 17). […] The radioactivity of each sample was measured using a liquid scintillation analyzer Tri-Carb 4910 TR (PerkinElmer). Oocytes that were injected with water instead of RNA were analyzed in parallel, representing the uptake of a drug by diffusion and/or endogenous permeation pathways. […]"}, "[1]": {"molecular_target": "T1, PfCRT variant CD2 (D24A, D57A, Y179A, F235A, D241A, E406A, D419A) (Plasmodium falciparum, UniProt Q9N623, A220S/D241A/D24A/D419A/D57A/E406A/F235A/I356T/K76T/M74I/N326S/N75E/Q271E/R371I/Y179A)", "T1 sequence (Q9N623 1-424 D24A/D57A/M74I/N75E/K76T/Y179A/A220S/F235A/D241A/Q271E/N326S/I356T/R371I/E406A/D419A)": "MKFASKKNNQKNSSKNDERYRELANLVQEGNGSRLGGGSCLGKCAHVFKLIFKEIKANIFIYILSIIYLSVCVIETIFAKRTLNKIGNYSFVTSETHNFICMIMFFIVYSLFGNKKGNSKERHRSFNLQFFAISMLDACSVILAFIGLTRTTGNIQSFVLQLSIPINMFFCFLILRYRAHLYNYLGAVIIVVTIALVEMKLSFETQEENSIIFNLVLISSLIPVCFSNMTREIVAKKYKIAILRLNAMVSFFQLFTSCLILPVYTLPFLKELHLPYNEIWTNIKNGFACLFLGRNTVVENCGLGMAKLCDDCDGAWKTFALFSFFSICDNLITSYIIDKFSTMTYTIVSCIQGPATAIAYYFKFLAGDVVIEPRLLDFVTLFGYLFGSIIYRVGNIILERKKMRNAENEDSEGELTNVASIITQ", "experiment": "CQ uptake assay, oocytes expressing CD2", "format": "cell-based", "protocol": "as §1, §2\n(§3) Drug uptake assays were performed as described previously[21],[22],[24],[34]. […] The direction of radio-labeled drug transport is here from the mostly acidic extracellular solution (pH 4.5 or 6.0, as indicated) into the oocyte cytosol (pH ∼ 7.2), which corresponds to the efflux of drug from the acidic digestive vacuole (pH 5.2) into the parasite cytoplasm (pH 7.2). The topology of PfCRT in the oolemma is such that both the N- and C-terminus face the extracellular milieu[3],[22]. In the parasite, the N- and C-terminus face the lumen of the digestive vacuole. CQ uptake kinetics were performed by incubating oocytes in ND96 buffer adjusted to a pH of 4.5, 5.0, 5.5, or 6.0 and supplemented with 50 nM [^3H]CQ and one of 7 different CQ concentrations (10 µM, 50 µM, 100 µM, 200 µM, 300 µM, 400 µM, 500 µM CQ). The reaction was stopped at the 60 min time point, which is in the linear uptake range[22],[34] (Supplementary Fig. 17). For determination of the amount of drug uptake for each oocyte, the reaction medium was removed and the oocytes were washed three times with 2 ml of ice-cold ND96 buffer. Each oocyte was individually transferred to a scintillation vial containing 5% sodium dodecyl sulfate (200 μl) for lysis. The radioactivity of each sample was measured using a liquid scintillation analyzer Tri-Carb 4910 TR (PerkinElmer). Oocytes that were injected with water instead of RNA were analyzed in parallel, representing the uptake of a drug by diffusion and/or endogenous permeation pathways. The resulting value represents the “background“ level of drug accumulation in oocytes (in-depth discussion in[22]). […]"}, "PfCRT variant E207K/K80E": {"test_system": "PfCRT variant E207K/K80E", "experiment": "CQ uptake assay, oocytes expressing E207K/K80E", "format": "cell-based, Plasmodium falciparum", "protocol": "as §1, §2\nDrug uptake assays were performed as described previously[21],[22],[24],[34]. […] The radioactivity of each sample was measured using a liquid scintillation analyzer Tri-Carb 4910 TR (PerkinElmer). Oocytes that were injected with water instead of RNA were analyzed in parallel, representing the uptake of a drug by diffusion and/or endogenous permeation pathways. […]"}, "PfCRT variant K80A": {"test_system": "PfCRT variant K80A", "experiment": "CQ uptake assay, oocytes expressing K80A", "format": "cell-based, Plasmodium falciparum", "protocol": "as §1, §2, §3"}, "[2]": {"experiment": "pKa values of the drugs (literature)", "format": "physicochemical", "settings": "between pH 4.5 and 6.0"}, "[3]": {"settings": "Y177A, 50 µM CQ, 1 h, mean ± SEM"}, "[4]": {"settings": "pH 4.5, single replicates, Fig 1d left"}, "[5]": {"settings": "pH 6.0, single replicates, Fig 1d left"}, "[6]": {"settings": "E207K/K80E, 50 µM CQ, 1 h, mean ± SEM"}, "[7]": {"settings": "pH 4.5, individual replicates (Fig 6a)"}, "[8]": {"settings": "pH 6.0, individual replicates (Fig 6a)"}, "[9]": {"settings": "K80A, 50 µM CQ, 1 h, mean ± SEM"}}, "note": "Several values for one entry are separate records, joined by “and”; a condition that tells them apart may be missing. Identical values can stand only once."}
{"smiles": "CCN(CC)CCCC(C)Nc1ccnc2cc(Cl)ccc12", "note": "(stereo not shown) [CQ, chloroquine]", "values": [{"measurement": "Activity at pH 4.5", "setting": "PfCRT variant Y177A; [3]", "result": "1.25 ± 0.21", "unit": "pmol h-1 oocyte-1"}, {"measurement": "Activity at pH 6.0", "setting": "PfCRT variant Y177A; [3]", "result": "2.94 ± 0.26", "unit": "pmol h-1 oocyte-1"}, {"measurement": "R-value", "setting": "PfCRT variant Y177A; Y177A, CQ transport at pH 4.5 / pH 6.0", "result": "0.44 ± 0.11"}, {"measurement": "Y177A transport activity pH 4.5", "setting": "PfCRT variant Y177A; [4]", "result": "0.79 pmol oocyte-1 h-1 and 1.73 pmol oocyte-1 h-1 and 1.60 pmol oocyte-1 h-1 and 0.87 pmol oocyte-1 h-1"}, {"measurement": "Y177A transport activity pH 6.0", "setting": "PfCRT variant Y177A; [5]", "result": "2.11 pmol oocyte-1 h-1 and 3.29 pmol oocyte-1 h-1 and 2.90 pmol oocyte-1 h-1 and 3.47 pmol oocyte-1 h-1"}, {"measurement": "Activity at pH 4.5", "setting": "[1]; CD2, 50 µM CQ, 1 h, mean ± SEM", "result": "1.26 ± 0.05", "unit": "pmol h-1 oocyte-1"}, {"measurement": "Activity at pH 6.0", "setting": "[1]; CD2, 50 µM CQ, 1 h, mean ± SEM", "result": "2.31 ± 0.23", "unit": "pmol h-1 oocyte-1"}, {"measurement": "R-value", "setting": "[1]; CD2, CQ transport at pH 4.5 / pH 6.0", "result": "0.56 ± 0.05"}, {"measurement": "CD2 transport activity pH 4.5", "setting": "[1]; [4]", "result": "1.18 pmol oocyte-1 h-1 and 1.21 pmol oocyte-1 h-1 and 1.38 pmol oocyte-1 h-1"}, {"measurement": "CD2 R-value", "setting": "[1]; pH 4.5 vs pH 6.0, Fig 1d left", "result": "0.68 and 0.46 and 0.54"}, {"measurement": "CD2 transport activity pH 6.0", "setting": "[1]; [5]", "result": "1.74 pmol oocyte-1 h-1 and 2.62 pmol oocyte-1 h-1 and 2.56 pmol oocyte-1 h-1"}, {"measurement": "Activity at pH 4.5", "setting": "PfCRT variant E207K/K80E; [6]", "result": "1.85 ± 0.84", "unit": "pmol h-1 oocyte-1"}, {"measurement": "Activity at pH 6.0", "setting": "PfCRT variant E207K/K80E; [6]", "result": "4.75 ± 0.91", "unit": "pmol h-1 oocyte-1"}, {"measurement": "E207K/K80E transport activity pH 4.5", "setting": "PfCRT variant E207K/K80E; [7]", "result": "3.47 pmol oocyte-1 h-1 and 1.46 pmol oocyte-1 h-1 and 0.63 pmol oocyte-1 h-1"}, {"measurement": "E207K/K80E transport activity pH 6.0", "setting": "PfCRT variant E207K/K80E; [8]", "result": "6.4 pmol oocyte-1 h-1 and 4.59 pmol oocyte-1 h-1 and 3.25 pmol oocyte-1 h-1"}, {"measurement": "Activity at pH 4.5", "setting": "PfCRT variant K80A; [9]", "result": "1.71 ± 0.08", "unit": "pmol h-1 oocyte-1"}, {"measurement": "Activity at pH 6.0", "setting": "PfCRT variant K80A; [9]", "result": "2.26 ± 0.12", "unit": "pmol h-1 oocyte-1"}, {"measurement": "R-value", "setting": "PfCRT variant K80A; K80A, CQ transport at pH 4.5 / pH 6.0", "result": "0.76 ± 0.04"}, {"measurement": "K80A transport activity pH 4.5", "setting": "PfCRT variant K80A; [7]", "result": "1.97 pmol oocyte-1 h-1 and 1.67 pmol oocyte-1 h-1 and 1.57 pmol oocyte-1 h-1 and 1.62 pmol oocyte-1 h-1"}, {"measurement": "K80A transport activity pH 6.0", "setting": "PfCRT variant K80A; [8]", "result": "2.59 pmol oocyte-1 h-1 and 1.89 pmol oocyte-1 h-1 and 2.31 pmol oocyte-1 h-1 and 2.26 pmol oocyte-1 h-1"}, {"measurement": "K80A R-value", "setting": "PfCRT variant K80A; transport activity pH 4.5 relative to pH 6.0 (Fig 6a)", "result": "0.76 and 0.88 and 0.68 and 0.72"}, {"measurement": "molecules being di-protonated", "setting": "[2]", "result": "> 99", "unit": "%"}]}
